Test system: P. falciparum 3D7 growth, pLDH absorbance
Experiment: P. falciparum 3D7 growth inhibition, dose response, strain 3D7 (AID 2305)

SMILES	IC50 [nM]
COc1cc(C(=O)N2N=C(c3c(-c4ccccc4)c4cc(Br)ccc4[nH]c3=O)CC2c2cccc([N+](=O)[O-])c2)cc(OC)c1OC (stereo not drawn)	940
CCN(CCCN1CCCCC1)c1cc(C)nc(Nc2cccc(C(F)(F)F)c2C)n1	610
Cc1cc(OCCCN2CCCCC2)ccc1NC(=O)COc1ccc(Cl)cc1C(=O)c1cc(Cl)cc(C#N)c1	890
O=C(NC1CCCCC1)c1csc(C2CCCN(C(=O)c3ccc(O)c(-c4cccc(C(F)(F)F)c4)c3)C2)n1 (stereo not drawn)	1670
Cc1cccc2[nH]c(-c3ccc(-c4cccc(NC(=O)CCc5cnc[nH]5)c4)s3)nc12	840
O=C1c2ccc([N+](=O)[O-])cc2C(=O)N1c1ccc2[nH]ncc2c1	1150
Cc1ccc(O)cc1C[C@@H]1C(=O)CC[C@@]2(C)[C@H]1CC[C@]2(C)O	960
c1ccc(-n2cncn2)cc1	590
O=c1cc(N2CCCNCC2)c(Cl)nn1Cc1ccc(NS(=O)(=O)c2ccc(Oc3ccccc3)cc2)cc1	800
Nc1nc(N)c2c(ccc3c2ccn3C2C=CCCC2)n1 (stereo not drawn)	130
CCC1(C)CC(CCNCc2ccccc2O)(c2ccccc2OC)CCO1 (stereo not drawn)	720
CN1CCN(c2cc(-c3cccc(C(F)(F)F)c3)nc(-c3ccncc3)n2)CC1	730
CCCCOC(=O)C1=C(C)NC2=C(C(=O)CC(c3ccc(OC)c(OC)c3)C2)C1c1ccc(O)cc1 (stereo not drawn)	830
O=C(Cc1cnc[nH]1)Nc1cccc(-c2ccc(-c3nc4ccccc4[nH]3)cc2)c1	760
CC(CNC(=O)c1cc2c(Cl)cc(Cl)cc2[nH]1)CNc1cc(=O)c2ccccc2[nH]1 (stereo not drawn)	720
CC[C@H]1CN2CC[C@H]1C[C@@H]2[C@@H](OC(=O)c1ccc(Cl)cc1)c1ccnc2ccc(OC)cc12	920
CCN(CC)CCN(Cc1ccc(-c2ccc(C(F)(F)F)cc2)cc1)C(=O)Cn1nc(-c2ccc(C(F)(F)F)cc2)ccc1=O	800
COCCn1c(-c2nc(-c3ccc(F)cc3)cnc2N)nc2ccccc21	870
COc1ccc(S(=O)(=O)NC2CCN(CCNC(=O)Nc3cc(C)nc4ccccc34)C2)cc1 (stereo not drawn)	1190
CN1CCN(CCCN(Cc2ccc(-c3cccc(CNC4CCCC4)c3)cc2)C(=O)Nc2ccccc2)CC1	1120
FC(F)(F)c1ccc2nc(-c3ccc(-c4cccc(CNCC5CCCO5)c4)s3)[nH]c2c1 (stereo not drawn)	370
NC(=NCC1CC1c1ccccc1)c1cccc(C(N)=NCC2CC2c2ccccc2)n1 (stereo not drawn)	1760
COc1ccc(Oc2cnc(N)nc2N)c(C(C)C)c1	740
COc1ccc(-c2csc(C(=O)NC3CCC(N4CCC(c5ccccc5C)CC4)CC3)c2)cc1 (stereo not drawn)	380

SMILES	IC50 [nM]
COc1ccc(CCn2c(C3CCCCC3)nc3oc4ccccc4c(=O)c3c2=O)cc1	950
COc1nc2c(CCN3CC[C@H](NCc4ccc5c(c4)NC(=O)CO5)[C@H](O)C3)c(Cl)cnc2cc1F	1020
Cc1c(C)c2c(c(C)c1O)CC[C@](C)(C(=O)N1CCC(CCN3CCC(c4c[nH]c5ccccc45)CC3)CC1)O2	830
COc1cc(Nc2nccc(NCC(O)c3ccc(C(F)(F)F)cc3)n2)cc(OC)c1OC (stereo not drawn)	920
CN1CCC(C(=O)N(Cc2ccc(-c3ccc(CNCCc4ccc(S(C)(=O)=O)cc4)cn3)cc2)Cc2ccc3c(c2)OCO3)CC1	1000
Nc1cccc(CNCc2ccc(-c3cccc(-c4nc5ccc(C(F)(F)F)cc5[nH]4)c3)cc2)c1	170
Cc1c(Cn2nc(Cl)c(N3CCNCC3)cc2=O)cccc1NC(=O)Nc1ccc(-c2ccccc2)cc1	1380
COc1ccc(-c2cnc(N)c(-c3nc4ccc(Br)cc4[nH]3)c2)cc1	1560
CC(C)C[C@H](Nc1ccnc(NCC2CCCCC2)n1)C(=O)NCCc1ccccc1	750
COc1cc(OC)c(NC(=O)COc2ccc(C)cc2)cc1Cl	690
NC(=O)c1cccc(Nc2nccc(Nc3ccc4[nH]c(-c5ccccc5)cc4c3)n2)c1	780
O=C1Nc2cccc3c2C1(CCCCN1CCC(c2c(-c4ccccc4)[nH]c4ccccc24)CC1)CCC3 (stereo not drawn)	1200
CCCc1cc2c3c(N)nc(N)nc3ccc2n1CC	50
CCCCCNc1ccnc2cc(Cl)ccc12	510
Cc1cnc(N2CCN(CC3CCN(C)CC3)CC2)nc1Oc1ccc(-n2ccnc2)cc1	720
CN(C)Cc1ccc(-c2ccc(NC(=O)c3ccc4c(=O)n(Cc5ccccc5)cnc4c3)cc2)cc1	650
N#CCCN1CCN(Cc2ccc(-c3cccc(-c4nc5ccc(F)cc5[nH]4)c3)cc2)CC1	970
O=C(Nc1ccc(Cl)cc1)c1cccc(S(=O)(=O)NC2CCN(CC3CCCCC3)C2)c1 (stereo not drawn)	910
O=C(Nc1ccc(OC2CCN(Cc3ccc(F)cc3)C2)c(Cl)c1)c1cccs1 (stereo not drawn)	130
O=C1COc2ccccc2N1CCN1CCC(NCc2ccc(-c3cccs3)cc2)CC1	1430
O=C(Nc1cccc(-c2nn3ccccc3c2-c2ccnc(Nc3ccccc3)n2)c1)c1c(F)cccc1F	720
CCC[C@@H]([C@@H](CC1CCC(C)CC1)C(=O)N[C@@H](CO)C(=O)Nc1nccs1)N(O)C=O (stereo partly drawn)	320
CCCCCCCc1cc(O)c2c(c1)OC(C)(C)c1ccncc1-2	1150
NC(=O)C1CCN(Cc2ccc(-c3ccc(-c4nc5ccc(C(F)(F)F)cc5[nH]4)cc3)cc2)CC1	680

Source: PubChem BioAssay AID2305 (GlaxoSmithKline (GSK), 2010)
